Laboratory results as given in paper PMC5724930 (Biochemistry, 2017).

Key:
PanZ [1] = target: T1, PanZ (Escherichia coli, UniProt P37613, R73A); assay: ITC; type: binding
T1 construct: PanZ(R73A)

PanZ [2] = target: T2, PanZ (Escherichia coli, UniProt P37613); assay: ITC; also […] Å crystal structure of the PanD–PanZ·AcCoA complex; type: binding
T2 construct: PanZ(WT)
T2 sequence (P37613 whole entry): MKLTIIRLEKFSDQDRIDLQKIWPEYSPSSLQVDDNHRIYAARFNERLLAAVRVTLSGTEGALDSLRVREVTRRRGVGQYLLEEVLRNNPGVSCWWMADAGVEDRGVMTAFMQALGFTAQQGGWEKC

T1 sequence (P37613 whole entry R73A): as the sequence (P37613 whole entry) above, with R73A counted along it

CC(=O)SCCNC(=O)CCNC(=O)[C@H](O)C(C)(C)COP(=O)(O)OP(=O)(O)OC[C@H]1O[C@@H](n2cnc3c(N)ncnc32)[C@H](O)[C@@H]1OP(=O)(O)O [AcCoA]
Kd (PanZ [1]): 220 ± 30 µM
Kd (PanZ [2]): 0.524 ± 0.064 µM
